Test results as given in ChEMBL document CHEMBL2311474, “Chiral 6,7-bis(hydroxymethyl)-1H,3H-pyrrolo[1,2-c]thiazoles with anti-breast cancer properties” (Eur J Med Chem, 2013).

Legend:
[1] = Cytotoxicity against human HFF1 cells after 96 hrs by MTT assay; assay type: cell-based; conditions: HFF-1, 96 h
MCF7 [2] = assay: Cytotoxicity against human MCF7 cells after 24 hrs by MTT assay; assay type: functional, cell-based; conditions: MCF7, 24 h
MCF7 [3] = assay: Cytotoxicity against human MCF7 cells after 96 hrs by MTT assay; assay type: functional, cell-based; conditions: MCF7, 96 h
MCF7 [4] = assay: Cytotoxicity against human MCF7 cells after 72 hrs by MTT assay; assay type: functional, cell-based; conditions: MCF7, 72 h
MCF7 [5] = assay: Cytotoxicity against human MCF7 cells after 48 hrs by MTT assay; assay type: functional, cell-based; conditions: MCF7, 48 h

| Structure (SMILES) | IC50 [1] | IC50 (MCF7 [2]) | IC50 (MCF7 [3]) | IC50 (MCF7 [4]) | IC50 (MCF7 [5]) |
| --- | --- | --- | --- | --- | --- |
| Cc1c(CO)cc2n1[C@@H](c1ccccc1)SC2 | 154 µM |  |  |  |  |
| Cc1cc(CO)c2n1[C@@H](c1ccccc1)SC2 | 104 µM |  |  |  |  |
| Cc1c(COC(=O)NCc2ccccc2)cc2n1[C@@H](c1ccccc1)SC2 | 48.2 µM |  |  |  |  |
| OCc1c(CO)c(-c2ccccc2)n2c1CS[C@@H]2c1ccccc1 |  | 92.6 µM | 70.2 µM | 52.1 µM | 61.8 µM |
| OCc1c(CO)c(-c2ccc(F)cc2)n2c1CS[C@@H]2c1ccccc1 |  | 56.7 µM | 26.4 µM | 44.6 µM | 46.3 µM |
| Cc1c(CO)c(CO)c2n1[C@H](c1ccccc1)SC2 |  | 1.75 µM | 0.3 µM | 0.54 µM | 0.54 µM |
| Cc1c(CO)cc2n1CSC2 |  | 186 µM | 82.3 µM | 192 µM | 156 µM |
| Cc1cc(CO)c2n1CSC2 |  | 75.9 µM | 44.6 µM | 40.9 µM | 54.7 µM |
| Cc1c(CO)c(CO)c2n1CSC2 |  | 37.8 µM | 21.5 µM | 22.6 µM | 38.1 µM |
| COc1cc([C@H]2SCc3c(CO)c(CO)c(C)n32)cc(OC)c1OC |  | > 200 µM | 59.9 µM | 54.5 µM | 127 µM |
| OCc1cn2c(c1CO)CS[C@@H]2c1ccccc1 |  | 70.8 µM |  |  | 19.4 µM |
| OCc1cn2c(c1CO)CS[C@@H]2c1cccnc1 |  | > 200 µM | 30.6 µM | 61.7 µM | 128 µM |
